US11104735B2, “Inhibition of cytokine-induced SH2 protein in NK cells” (The Walter and Eliza Hall Institute of Medical Research, priority 2015, dated 2021)
Residues, ends and D or L forms follow the SMILES beside them. *: point of attachment. Cbz = O=C(OCc1ccccc1)*

How the values were obtained:
[1] = test system: JAK1 phosphorylation in 293T cells; experiment: JAK1 phosphorylation in 293T cells co-expressing JAK1 and CIS; assay type: cell-based, human; settings: pre-incubation of 293T cells, 10 μM for 4 h
Method: (a) Isothermal calorimetry (ITC) was used to measure the affinity of hCIS-SH2-BC binding to phosphopeptides corresponding to tyrosines within the JAK1/3 kinase domain activation loops and IL-2Rβ cytoplasmic domains. Tabular view of the results, showing mean±S.D. from two independent experiments. N.D.=Not detectable, p=phosphorylated. […] In some instances, cells were treated with the proteasome inhibitor, MG132. […] Protein expression levels are shown by anti-FLAG blots of whole cell lysates (lower panels). […] Protein levels are shown in the lower panels by anti-FLAG blot of cell lysates. (e) Using a cell-free system, FLAG-JAK1 was incubated with (+) and without (−) the CIS-E3 ligase complex (CIS-SH2-BC with Cullin5 and Rbx2), together with ubiquitin, E1 and E2 enzymes at 37° C. for the times indicated. JAK1 ubiquitination was visualised by Western blotting with antibodies to […]. […] Data were normalised to no-CIS controls. […] See also FIG. 9.
Lysates were clarified by centrifugation at 16,060×g for 15 min at 4° C. Protein concentrations were determined by the BCA method (Pierce, Rockford). […] In some instances, cells were pre-treated with 10 μM MG132 for 4 h to block proteasomal degradation. 48 h post-transfection cells were lysed in KALB buffer (Nicholson et al., 1995). FLAG proteins were immunoprecipitated using M2-beads (Sigma) and proteins eluted in SDS sample buffer. […]

[2] = test system: wild-type NK cells; experiment: JAK1 phosphorylation in IL-15 stimulated wild-type NK cells; assay type: cell-based, mouse; settings: IL-15 50 ng/ml
Method: (a) Cultured NK cells from wild-type and Cish^−/− mice were lysed, mRNA purified and analysed by RNAseq. Mean RPKM values for duplicate samples (left panel). JAK1 mRNA levels were analysed by Q-PCR (right panel). Mean±S.D., n=3. (b) 4-12% Coomassie-stained SDS-PAGE gel showing purified hCIS-SH2-BC complex, elongin B and elongin C. (c) Isothermal calorimetry (ITC) was used to measure the affinity of hCIS-SH2-BC binding to phosphopeptides corresponding to tyrosines within the JAK1/3 kinase domain activation loops and IL-2Rβ and γ cytoplasmic domains. […] were titrated into a 30 μM solution of the GST-CIS-SH2-BC ternary complex. ITC titration curves and tabular view of some results (inset) showing mean±S.D. from two independent experiments. N.D.=Not detectable, p=phosphorylated. The titration curves all fitted well to a single-site model. (d) Cultured wild-type NK cells were washed and starved of IL-15 for 4 h, with and without addition of the proteasomal inhibitor, MG132. Cells were then stimulated with 50 ng ml^−1 IL-15 for the indicated times, prior to cell lysis and Western blotting with antibodies to the indicated proteins. […]
Lysates were clarified by centrifugation at 16,060×g for 15 min at 4° C. Protein concentrations were determined by the BCA method (Pierce, Rockford). […]

[3] = test system: primary human NK cells; experiment: Immunoblot of IL-15 treated primary human NK cells; assay type: cell-based; settings: 2 h with IL-15, 10 μM
Method: Patient-derived human NK cells (a) or NK lymphoma cell lines (b) SNK-10, (c) NKL and NK6, (d) NK-92 were washed free of cytokine and rested for 4 h (a) or 16 h (b-d) prior to treatment with IL-15 for the indicated times. In some instances, cells were incubated with the proteasomal inhibitor MG132 (10 μM). Cells were lysed and analysed by immunoblotting with antibodies to the indicated phosphorylated (p) and total proteins.

[4] = test system: LWT1 melanoma cells; experiment: LWT1 experimental lung metastasis; assay type: in vivo, mouse; settings: Cish−/− mice, 7.5×10^5 cells i.v., day 14
Method: Mice were monitored for tumor development and were euthanized at the point of abdominal swelling and discomfort. Improved survival between groups was assessed by the Log-rank Mantel-Cox test. (D) Groups of 5-15 B6.WT (Cish^+/+) or B6.Cish^-/- mice were injected i.v. with 5×10^5 RM-1 prostate carcinoma cells and treated with either cIg, anti-CD96, anti-PD-1, anti-CTLA-4 or anti-PD1/anti-CTLA-4 combination (250 μg i.p. each on days 0 and 3). (E) Groups of 8-10 B6.WT (Cish^+1 or B6.Cish^-/- mice were injected i.v. with 7.5×10^5 B16F10 melanoma cells and treated with either 250 μg cIg or anti-CD96 mAb (i.p. on days 0 and 3). (F) Groups of 5-6 B6.WT (Cish^+1 or B6.Cish^-/- mice were injected i.v. with 7.5×10^5 LWT1 melanoma cells and treated with either vehicle or PLX4720 (10 mg/kg i.p., daily from day 0 to 6). Lungs were harvested on (A, D, F) day 14 or (B, E) day 13 and macrometastases counted. Individual mice are shown by each symbol and the results are plotted as mean±SEM. Statistically significant differences as indicated were determined by one-way ANOVA with Tukey post-test (for multiple comparisons) (*: […]; **: p<0.01; ***: p<0.001; ****: p<0.0001). […] Lungs were harvested on day 14 and macrometastases counted. […] Lungs were harvested on day 14 and either fixed in Bouin's solution and B16F10 metastases counted^44 or analysed for NK cell expansion by flow cytometry. […]

[5] = biological target: T1, CIS (Homo sapiens, UniProt Q9NSE2, DEL174-202); experiment: Kinase inhibition assay with competitor of CIS-SH2 binding; assay type: biochemical; settings: for Effect on CIS-mediated inhibition of JAK1 JH1: CIS-SH2-BC, excess JAK1-Y1034 phosphopeptide as competitor
T1 construct: fragment: residues 66-258 with a deletion of; GST (N); made in house; host or cells: E. coli BL21(DE3)
Method: (a) Cultured NK cells from wild-type and Cish^−/− mice were lysed, mRNA purified and analysed by RNAseq. Mean RPKM values for duplicate samples (left panel). JAK1 mRNA levels were analysed by Q-PCR (right panel). Mean±S.D., n=3. (b) 4-12% Coomassie-stained SDS-PAGE gel showing purified hCIS-SH2-BC complex, elongin B and elongin C. (c) Isothermal calorimetry (ITC) was used to measure the affinity of hCIS-SH2-BC binding to phosphopeptides corresponding to tyrosines within the JAK1/3 kinase domain activation loops and IL-2Rβ and γ cytoplasmic domains. […] were titrated into a 30 μM solution of the GST-CIS-SH2-BC ternary complex. ITC titration curves and tabular view of some results (inset) showing mean±S.D. from two independent experiments. N.D.=Not detectable, p=phosphorylated. The titration curves all fitted well to a single-site model. (d) Cultured wild-type NK cells were washed and starved of IL-15 for 4 h, with and without addition of the proteasomal inhibitor, MG132. Cells were then stimulated with 50 ng ml^−1 IL-15 for the indicated times, prior to cell lysis and Western blotting with antibodies to the indicated proteins. (e) Kinase inhibition assays were performed with the kinase domain (JH1) of JAK1 in the presence of CIS-SH2-BC with and without excess JAK1-Y1034 phosphopeptide as a competitor. […] Data were normalised to no-CIS controls.
(c) Alternatively, 50 μM JAK1-Y1034 or JAK3-Y980,Y981 phosphopeptides were used as competitor. Data were normalised to no-CIS controls. All CIS constructs contained the SOCS box and were expressed and purified as a trimeric complex consisting of CIS, elongin B and elongin C.
Kinase inhibition assays were performed essentially as described (Babon et al., 2012). Briefly, 130 μM STAT5b peptide (SEQ ID NO:18 […]) was incubated with 5 nM JAK1 at 25° C. for 30-60 min in 20 mM Tris pH 8.0, 100 mM NaCl, 5 mM 2-mercaptoethanol, 0.2 mg ml^−1 bovine serum albumin, 2 mM MgCl2, 100 μM ATP and 1 mCi γ-[32P]ATP. Recombinant CIS-SH2-BC was present at concentrations ranging from 0-30 μM. After incubation, the reaction was spotted onto P81 phosphocellulose paper and quenched in 5% H3PO4. The paper was washed (4×200 ml, 15 min) with 5% H3PO4 and exposed to a phosphorimager plate (Fuji). Quantitation was performed using Fuji software and IC50 curves calculated using Graphpad Prism.

[6] = test system: advanced malignant melanoma; settings: patients; cited from earlier work
[7] = biological target: T2, JAK3 phosphopeptide (JAK3-Y980,Y981) (Homo sapiens, UniProt P52333); experiment: ITC, CIS constructs binding to JAK3 phosphopeptide; settings: CIS constructs with elongins B and C
T2 construct: purchased Genscript
Method: 300 μM phosphopeptides were titrated into a 30 μM solution of the GST-CIS-SH2-BC ternary complex. ITC titration curves are shown. The titration curves all fitted well to a single-site model.
Isothermal calorimetric titrations were performed with a Microcal ITC200 (GE Healthcare). Phosphopeptides were obtained from Genscript. An optimised GST-CIS protein construct was prepared in which the internal PEST region ([…]) was deleted. The resulting ternary GST-CIS-SH2-SB complexes were dialysed against buffer (20 mM Tris pH 8.0, 100 mM NaCl, 2 mM 2-mercaptoethanol). Experiments were performed at 298 K unless stated otherwise. Typically, 12×3.15 μl injections of 300 μM phosphopeptides were titrated into a 30 μM solution of the GST-CIS-SH2-SB ternary complex. The heat of dilution of GST-CIS-SH2-BC was subtracted from the raw data of the binding experiment. Data were analysed using the evaluation software, Microcal Origin version 5.0. The binding curve fitted a single-site binding mode and all KD values were determined from duplicate experiments.

Compound: CC(C)C[C@@H](C=O)NC(=O)[C@H](CC(C)C)NC(=O)[C@H](CC(C)C)NC(=O)OCc1ccccc1 [MG132] (Cbz-Leu-Leu-Leu-aldehyde)
- Effect on CIS-mediated regulation of JAK1 phosphorylation [1]: reduced CIS-mediated regulation of JAK1 phosphorylation
- Phosphorylation of endogenous JAK1 [2]: increase in phosphorylation of endogenous JAK1
- JAK1 phosphorylation [3]: remained reduced
- Total JAK1 and CIS levels [3]: increase total JAK1 and CIS levels

Compound: CCCS(=O)(=O)Nc1ccc(F)c(C(=O)c2c[nH]c3ncc(Cl)cc23)c1F [PLX4720]
- LWT1 lung metastasis [4]: further reduced

Compound: O=P(O)(O)Oc1ccccc1 [phenyl phosphate, reference compound]
- Effect on CIS inhibition of JAK1 kinase activity ([5]; excess phenyl phosphate as competitor, all CIS constructs): abrogated the ability of all CIS constructs to inhibit JAK1 kinase activity

Compound: Ipilimumab: antibody-based therapy that targets CTLA-4
- Tumour responses [6]: 10-12%

Compound: JAK1-Y1034: phosphopeptide corresponding to a singly-phosphorylated JAK1 activation loop (Tyr1034)
- Effect on CIS inhibition of JAK1 kinase activity ([5]; 50 μM free phosphopeptide as competitor): dramatically reduced the ability of CIS to inhibit JAK1 kinase activity
- Effect on CIS-mediated inhibition of JAK1 JH1 ([5]; listed as JAK1 activation loop peptide): only partial reduction of inhibition
- Effect on CIS-mediated inhibition of JAK1 JH1 ([5]; listed as pY1034 peptide): partially reduced CIS-mediated inhibition

Compound: full-length CIS: human full-length CIS protein expressed with elongins B and C as trimeric complex
- Binding affinity (ITC) to JAK3 phosphopeptide [7]: comparable affinity
